Reference: PubChem BioAssay AID2060883 (Molecular Pharmacology Branch, DTP, NCI, 2025)
“And” between values parts separate entries of the source, which are not always exact repeats. Identical values can stand only once.

System: 843782-103-R-J1-PDC complex spheroid viability
Assay: Anticancer human tumor 843782-103-R-J1-PDC patient-derived lung adenocarcinoma cell line growth inhibition [RAS]
Settings: for viability, T/C: stronger effect = lower value
Outline: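 Multi-cell-type spheroids: tumor cells plus HUVEC endothelial cells and mesenchymal stem cells. RAS-pathway inhibitors were combined with targeted agents, each dosed in half-log steps down from clinical Cmax, or from 10 microM when Cmax was unknown.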

[1] = curve of first compound, second compound 0.000949 µM
[2] = curve of first compound, second compound 0.003 µM
[3] = curve of first compound, second compound 0.00949 µM
[4] = curve of first compound, second compound 0.03 µM
[5] = curve of first compound, second compound 0.0949 µM
[6] = curve of first compound, second compound 0.3 µM
[7] = second compound 0.000949 µM, first compound 0.0316 µM
[8] = second compound 0.000949 µM, first compound 0.1 µM
[9] = second compound 0.000949 µM, first compound 0.316 µM
[10] = second compound 0.000949 µM, first compound 1 µM
[11] = second compound 0.000949 µM, first compound 3.16 µM
[12] = second compound 0.000949 µM, first compound 10 µM
[13] = second compound 0.003 µM, first compound 0.0316 µM
[14] = second compound 0.003 µM, first compound 0.1 µM
[15] = second compound 0.003 µM, first compound 0.316 µM
[16] = second compound 0.003 µM, first compound 1 µM
[17] = second compound 0.003 µM, first compound 3.16 µM
[18] = second compound 0.003 µM, first compound 10 µM
[19] = second compound 0.00949 µM, first compound 0.0316 µM
[20] = second compound 0.00949 µM, first compound 0.1 µM
[21] = second compound 0.00949 µM, first compound 0.316 µM
[22] = second compound 0.00949 µM, first compound 1 µM
[23] = second compound 0.00949 µM, first compound 3.16 µM
[24] = second compound 0.00949 µM, first compound 10 µM
[25] = second compound 0.03 µM, first compound 0.0316 µM
[26] = second compound 0.03 µM, first compound 0.1 µM
[27] = second compound 0.03 µM, first compound 0.316 µM
[28] = second compound 0.03 µM, first compound 1 µM
[29] = second compound 0.03 µM, first compound 3.16 µM
[30] = second compound 0.03 µM, first compound 10 µM
[31] = second compound 0.0949 µM, first compound 0.0316 µM
[32] = second compound 0.0949 µM, first compound 0.1 µM
[33] = second compound 0.0949 µM, first compound 0.316 µM
[34] = second compound 0.0949 µM, first compound 1 µM
[35] = second compound 0.0949 µM, first compound 3.16 µM
[36] = second compound 0.0949 µM, first compound 10 µM
[37] = second compound 0.3 µM, first compound 0.0316 µM
[38] = second compound 0.3 µM, first compound 0.1 µM
[39] = second compound 0.3 µM, first compound 0.316 µM
[40] = second compound 0.3 µM, first compound 1 µM
[41] = second compound 0.3 µM, first compound 3.16 µM
[42] = second compound 0.3 µM, first compound 10 µM
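Note: viability read after seven days of compound exposure.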

`CCC(CC)c1cc(NC2CCC(N)C2)n2nccc2n1` (stereo not drawn) + CCn1c(-c2cccnc2C(C)OC)c2c3cc(ccc31)N1CCOC(CC(NC(=O)C(C(C)C)N(C)C(=O)C3(F)CCN(C(=O)C#CC(C)(C)N(C)C)CC3)C(=O)N3CCCC(N3)C(=O)OCC(C)(C)C2)C1 gave an IC50 [1] of 1.02 µM, an IC50 [2] of 0.754 µM and an IC50 [3] of 1.04 µM. It also gave an IC50 [4] of 1.07 µM, an IC50 [5] of 0.768 µM and an IC50 [6] of 0.883 µM. It also gave a viability, T/C [7] of 70.7%, a viability, T/C [8] of 66.5% and a viability, T/C [9] of 73.8%. For the same compound, the viability, T/C [10] was 50.8%, the viability, T/C [11] was 1.84% and the viability, T/C [12] was 0.99%. It also gave a viability, T/C [13] of 70.5%, a viability, T/C [14] of 87% and a viability, T/C [15] of 67.8%. It also gave a viability, T/C [16] of 44.1%, a viability, T/C [17] of 1.8% and a viability, T/C [18] of 0.91%. The viability, T/C [19] was 73.5%, the viability, T/C [20] was 73.7% and the viability, T/C [21] was 78.1%. The viability, T/C [22] was 51.9%, the viability, T/C [23] was 3.01% and the viability, T/C [24] was 1.66%. For the same compound, the viability, T/C [25] was 78.4%, the viability, T/C [26] was 82.8% and the viability, T/C [27] was 71.9%. It also gave a viability, T/C [28] of 53.5%, a viability, T/C [29] of 1.5% and a viability, T/C [30] of 1.09%. It also gave a viability, T/C [31] of 74.6%, a viability, T/C [32] of 67.4% and a viability, T/C [33] of 65.7%. For the same compound, the viability, T/C [34] was 44.8%, the viability, T/C [35] was 1.32% and the viability, T/C [36] was 0.88%. For the same compound, the viability, T/C [37] was 77.3%, the viability, T/C [38] was 67.2% and the viability, T/C [39] was 61.8%. The viability, T/C [40] was 48.4%, the viability, T/C [41] was 1.4% and the viability, T/C [42] was 0.57%.
For `CC(C)NCC(C(=O)N1CCN(c2ncnc3c2C(C)CC3O)CC1)c1ccc(Cl)cc1` (stereo not drawn), the viability, T/C (compound 0.0316 µM) was 106% (2×) and 97% and 95.9%, the viability, T/C (compound 0.1 µM) was 96.2% [middle of 4 runs] and the viability, T/C (compound 0.316 µM) was 92.3% [middle of 4 runs]. For the same compound, the viability, T/C (compound 1 µM) was 62.4% [middle of 4 runs], the viability, T/C (compound 3.16 µM) was 30% [middle of 4 runs] and the viability, T/C (compound 10 µM) was 13.7% [middle of 4 runs]. The IC50 (curve of compound) was 1.54 µM [middle of 4 runs].
`CC1(C)CCC(Nc2ncc(C(F)(F)F)c(-c3c[nH]c4c(P(C)(C)=O)c(C#N)ccc34)n2)CN1` (stereo not drawn) + CCn1c(-c2cccnc2C(C)OC)c2c3cc(ccc31)N1CCOC(CC(NC(=O)C(C(C)C)N(C)C(=O)C3(F)CCN(C(=O)C#CC(C)(C)N(C)C)CC3)C(=O)N3CCCC(N3)C(=O)OCC(C)(C)C2)C1 showed an IC50 [1] of 0.00253 µM, an IC50 [2] of 0.00229 µM and an IC50 [3] of 0.00346 µM. The IC50 [4] was 0.00386 µM, the IC50 [5] was 0.00263 µM and the IC50 [6] was 0.00167 µM. It also gave a viability, T/C (second compound 0.000949 µM, first compound 0.000949 µM) of 78.2%, a viability, T/C (second compound 0.000949 µM, first compound 0.003 µM) of 45.2% and a viability, T/C (second compound 0.000949 µM, first compound 0.00949 µM) of 29.4%. The viability, T/C (second compound 0.000949 µM, first compound 0.03 µM) was 26.6%, the viability, T/C (second compound 0.000949 µM, first compound 0.0949 µM) was 22.9% and the viability, T/C (second compound 0.000949 µM, first compound 0.3 µM) was 21.8%. For the same compound, the viability, T/C (second compound 0.003 µM, first compound 0.000949 µM) was 59.9%, the viability, T/C (second compound 0.003 µM, first compound 0.003 µM) was 46.3% and the viability, T/C (second compound 0.003 µM, first compound 0.00949 µM) was 32.3%. For the same compound, the viability, T/C (second compound 0.003 µM, first compound 0.03 µM) was 21%, the viability, T/C (second compound 0.003 µM, first compound 0.0949 µM) was 17.9% and the viability, T/C (second compound 0.003 µM, first compound 0.3 µM) was 19.4%. For the same compound, the viability, T/C (second compound 0.00949 µM, first compound 0.000949 µM) was 59.6%, the viability, T/C (second compound 0.00949 µM, first compound 0.003 µM) was 51.8% and the viability, T/C (second compound 0.00949 µM, first compound 0.00949 µM) was 34%. It also gave a viability, T/C (second compound 0.00949 µM, first compound 0.03 µM) of 20.2%, a viability, T/C (second compound 0.00949 µM, first compound 0.0949 µM) of 19.5% and a viability, T/C (second compound 0.00949 µM, first compound 0.3 µM) of 19%. The viability, T/C (second compound 0.03 µM, first compound 0.000949 µM) was 62.9%, the viability, T/C (second compound 0.03 µM, first compound 0.003 µM) was 55.1% and the viability, T/C (second compound 0.03 µM, first compound 0.00949 µM) was 33%. The viability, T/C (second compound 0.03 µM, first compound 0.03 µM) was 22.6%, the viability, T/C (second compound 0.03 µM, first compound 0.0949 µM) was 18.8% and the viability, T/C (second compound 0.03 µM, first compound 0.3 µM) was 18%. For the same compound, the viability, T/C (second compound 0.0949 µM, first compound 0.000949 µM) was 69.3%, the viability, T/C (second compound 0.0949 µM, first compound 0.003 µM) was 46.8% and the viability, T/C (second compound 0.0949 µM, first compound 0.00949 µM) was 31.5%. For the same compound, the viability, T/C (second compound 0.0949 µM, first compound 0.03 µM) was 18.5%, the viability, T/C (second compound 0.0949 µM, first compound 0.0949 µM) was 17.3% and the viability, T/C (second compound 0.0949 µM, first compound 0.3 µM) was 17.6%. For the same compound, the viability, T/C (second compound 0.3 µM, first compound 0.000949 µM) was 57.7%, the viability, T/C (second compound 0.3 µM, first compound 0.003 µM) was 41.8% and the viability, T/C (second compound 0.3 µM, first compound 0.00949 µM) was 24.4%. For the same compound, the viability, T/C (second compound 0.3 µM, first compound 0.03 µM) was 15.5%, the viability, T/C (second compound 0.3 µM, first compound 0.0949 µM) was 13.6% and the viability, T/C (second compound 0.3 µM, first compound 0.3 µM) was 14.4%.
Compound `NC1c2ccccc2OC12CCN(c1cnc3c(N4CCCc5ncccc54)n[nH]c3n1)CC2` (stereo not drawn) + CCn1c(-c2cccnc2C(C)OC)c2c3cc(ccc31)N1CCOC(CC(NC(=O)C(C(C)C)N(C)C(=O)C3(F)CCN(C(=O)C#CC(C)(C)N(C)C)CC3)C(=O)N3CCCC(N3)C(=O)OCC(C)(C)C2)C1 has an IC50 [1] of under 0.0316 µM, an IC50 [2] of under 0.0316 µM and an IC50 [3] of under 0.0316 µM. The IC50 [4] was under 0.0316 µM, the IC50 [5] was under 0.0316 µM and the IC50 [6] was under 0.0316 µM. It also gave a viability, T/C [7] of 35.5%, a viability, T/C [8] of 24.2% and a viability, T/C [9] of 17.8%. For the same compound, the viability, T/C [10] was 17%, the viability, T/C [11] was 11.9% and the viability, T/C [12] was 15.1%. For the same compound, the viability, T/C [13] was 32.3%, the viability, T/C [14] was 21.8% and the viability, T/C [15] was 20.1%. It also gave a viability, T/C [16] of 16.4%, a viability, T/C [17] of 15.2% and a viability, T/C [18] of 12.4%. The viability, T/C [19] was 27.7%, the viability, T/C [20] was 25.4% and the viability, T/C [21] was 21%. It also gave a viability, T/C [22] of 14.5%, a viability, T/C [23] of 14.9% and a viability, T/C [24] of 13.7%. For the same compound, the viability, T/C [25] was 28.8%, the viability, T/C [26] was 24.7% and the viability, T/C [27] was 21.4%. The viability, T/C [28] was 18.5%, the viability, T/C [29] was 15.8% and the viability, T/C [30] was 14.1%. For the same compound, the viability, T/C [31] was 38.2%, the viability, T/C [32] was 24.4% and the viability, T/C [33] was 24%. For the same compound, the viability, T/C [34] was 16.6%, the viability, T/C [35] was 15.4% and the viability, T/C [36] was 12.4%. It also gave a viability, T/C [37] of 26.1%, a viability, T/C [38] of 23.8% and a viability, T/C [39] of 18.8%. The viability, T/C [40] was 21.8%, the viability, T/C [41] was 16.9% and the viability, T/C [42] was 14.1%.
